From patent US8853208B2, “Amino alcohol-substituted arylthienopyrimidinones, process for their preparation and their use as medicaments” (Sanofi, priority 2006, dated 2014)

biological target: T1, human MCH receptor (Homo sapiens, UniProt Q99705); experiment: Functional IC50 of MCH1R antagonists: cellular calcium flux (FLIPR) after MCH in recombinant HEK293 cells; type: cell-based; conditions: calcium flux after addition of agonist (MCH), recombinant HEK293 cell line expressing the human MCH receptor
T1 construct: expressed in transfected cells
From the text: Influence on the MCH receptor in vitro; determination of functional IC50 values of MCH1R antagonists
Cloning of the cDNA for the human MCH receptor, preparation of a recombinant HEK293 cell line which expresses the human MCH receptor, and functional measurements with the recombinant cell line took place in analogy to the description by Audinot et al. (J. Biol. Chem. 276, 13554-13562, 2001). A difference from the reference was, however, the use of the plasmid pEAK8 from EDGE Biosystems (USA) for the construction of the expression vector. The host used for the transfection was a transformed HEK cell line named “PEAK Stable Cells” (likewise from EDGE Biosystems). Functional measurements of the cellular calcium flux after addition of agonist (MCH) in the presence of ligand of the invention took place with the aid of the FLIPR apparatus from Molecular Devices (USA), using protocols of the apparatus manufacturer. The compounds of the invention show a significant inhibition (>30%) of the signal induced by the agonist at a concentration of 100 μM, preferably at 10 μM, particularly preferably at 1 μM, very particularly preferably at 100 nM and even more particularly preferably at 10 nM. Besides the functional activity it is also possible to determine the affinity for the MCH1R according to Audinot et al. (Br. J. Pharmacol. 2001, 133, 371-378).

T1 sequence (Q99705 whole entry): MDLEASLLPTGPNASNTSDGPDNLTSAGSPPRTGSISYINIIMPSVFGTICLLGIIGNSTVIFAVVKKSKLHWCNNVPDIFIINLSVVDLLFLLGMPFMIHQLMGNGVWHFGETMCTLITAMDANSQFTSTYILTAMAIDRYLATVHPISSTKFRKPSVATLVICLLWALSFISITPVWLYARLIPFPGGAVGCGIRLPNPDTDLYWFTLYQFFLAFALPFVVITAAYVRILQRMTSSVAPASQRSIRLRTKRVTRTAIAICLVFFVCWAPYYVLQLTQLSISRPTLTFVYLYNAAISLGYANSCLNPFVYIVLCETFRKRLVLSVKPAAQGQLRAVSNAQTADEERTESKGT

| Structure (SMILES) | IC50 |
| --- | --- |
| CCc1cc(-n2cnc3cc(C#CC(O)CC)sc3c2=O)ccc1O[C@H]1C[C@H]2CC[C@@H](C1)N2C (some centres unmarked) [Example 181] | 0.21 µM |
| CN1[C@@H]2CC[C@H]1C[C@@H](Oc1ccc(-n3cnc4cc(CCC5(O)CCCC5)sc4c3=O)cc1)C2 [Example 11, 6-[2-(1-Hydroxycyclopentyl)ethyl]-3-[4-((1R,3R,5S)-8-methyl-8-azabicyclo[3.2.1]oct-3-yloxy)phenyl]-3H-thieno[3,2-d]pyrimidin-4-one] | 1.29 µM |
| CCC(O)C#Cc1cc2ncn(-c3ccc(OC4C[C@H]5CC[C@@H](C4)N5C)c(CCC(O)CC)c3)c(=O)c2s1 (some centres unmarked) [Example 178] | 1.27 µM |
| CCC(C)(O)CCc1cc2ncn(-c3ccc(O[C@H]4C[C@H]5CC[C@@H](C4)N5C)c(Cl)c3)c(=O)c2s1 (some centres unmarked) [Example 20] | 1.03 µM |
| CC(O)C#Cc1cc2ncn(-c3ccc(O[C@H]4C[C@H]5CC[C@@H](C4)N5C)cc3)c(=O)c2s1 (some centres unmarked) [Example 50] | 0.24 µM |
| CC(C)N(C)C(=O)c1cc2ncn(-c3ccc(O[C@H]4C[C@H]5CC[C@@H](C4)N5C)cc3)c(=O)c2s1 [Example 82] | 6.88 µM |
| CCCCC(=O)c1cc2ncn(-c3ccc(O[C@H]4C[C@H]5CC[C@@H](C4)N5C)cc3)c(=O)c2s1 [Example 114] | 1.86 µM |
| CN1[C@@H]2CC[C@H]1C[C@@H](Oc1ccc(-n3cnc4cc(C(O)C5CCCC5)sc4c3=O)cc1)C2 (stereo partly drawn) [Example 121, 6-(Cyclopentylhydroxymethyl)-3-[4-((1S,3R,5R)-8-methyl-8-azabicyclo[3.2.1]oct-3-yloxy)phenyl]-3H-thieno[3,2-d]pyrimidin-4-one] | 0.75 µM |
| CN1[C@@H]2CC[C@H]1CC(Oc1ccc(-n3cnc4cc(C5=CCOCC5)sc4c3=O)cc1)C2 (some centres unmarked) [Example 142] | 2.59 µM |
| CCC(O)CCc1cc2ncn(-c3ccc(O[C@H]4C[C@H]5CC[C@@H](C4)N5C)c(C)c3)c(=O)c2s1 (some centres unmarked) [Example 27] | 0.14 µM |
| CN1[C@@H]2CC[C@H]1C[C@@H](Oc1ccc(-n3cnc4cc(C(=O)N5CCCCC5)sc4c3=O)cc1)C2 [Example 84] | 13 µM |
| Cc1cc(-n2cnc3cc(C#CC(C)O)sc3c2=O)ccc1O[C@H]1C[C@H]2CC[C@@H](C1)N2C (some centres unmarked) [Example 57] | 0.12 µM |
| COc1cc(-n2cnc3cc(C#CC(C)O)sc3c2=O)ccc1O[C@H]1C[C@H]2CC[C@@H](C1)N2C (some centres unmarked) [Example 58] | 0.34 µM |
| COCCCc1cc2ncn(-c3ccc(O[C@H]4C[C@H]5CC[C@@H](C4)N5C)c(Cl)c3)c(=O)c2s1 [Example 23] | 0.53 µM |
| CCCCC(O)c1cc2ncn(-c3ccc(O[C@H]4C[C@H]5CC[C@@H](C4)N5C)cc3)c(=O)c2s1 (some centres unmarked) [Example 127] | 1 µM |
| CS(=O)(=O)CCN1[C@@H]2CC[C@H]1C[C@@H](Oc1ccc(-n3cnc4cc(C#CC5CC5)sc4c3=O)cc1)C2 [Example 63] | 0.56 µM |
| CN1[C@@H]2CC[C@H]1C[C@@H](Oc1ccc(-n3cnc4cc(CC(O)C5CCC5)sc4c3=O)cc1)C2 (some centres unmarked) [Example 166] | 1.09 µM |
| CN1[C@@H]2CC[C@H]1C[C@@H](Oc1ccc(-n3cnc4cc(CC(O)c5ccco5)sc4c3=O)cc1)C2 (some centres unmarked) [Example 169] | 0.29 µM |
| CCC(O)CCc1cc2ncn(-c3ccc(OC4C[C@H]5CC[C@@H](C4)N5C)c(CCCO)c3)c(=O)c2s1 (some centres unmarked) [Example 190] | 1.35 µM |
| COc1cc(-n2cnc3cc(C#CC4CC4)sc3c2=O)ccc1OCCN1CCCC1 [Example 42, 6-Cyclopropylethynyl-3-[3-methoxy-4-(2-pyrrolidin-1-ylethoxy)phenyl]-3H-thieno[3,2-d]-pyrimidin-4-one] | 0.11 µM |
| CN1[C@@H]2CC[C@H]1C[C@@H](Oc1ccc(-n3cnc4cc(C#CC5CC5)sc4c3=O)cc1)C2 [Example 62] | 0.1 µM |
| CN1[C@@H]2CC[C@H]1CC(Oc1ccc(-n3cnc4cc(N5C[C@H]6CCCN6C5=O)sc4c3=O)cc1)C2 (some centres unmarked) [Example 77] | 9.65 µM |
| COC(C)(C)C#Cc1cc2ncn(-c3ccc(O[C@H]4C[C@H]5CC[C@@H](C4)N5C)cc3)c(=O)c2s1 [Example 56] | 0.84 µM |
| COCCCc1cc2ncn(-c3ccc(O[C@H]4C[C@H]5CC[C@@H](C4)N5C)c(C)c3)c(=O)c2s1 [Example 22] | 0.4 µM |
| O=c1c2sc(C#CC3CC3)cc2ncn1-c1ccc(OCCN2CCCC2)c(F)c1 [Example 69] | 0.2 µM |
| CN1[C@@H]2CC[C@H]1C[C@@H](Oc1ccc(-n3cnc4cc(CCC5CC5)sc4c3=O)cc1)C2 [Example 7] | 0.94 µM |
| CN1[C@@H]2CC[C@H]1C[C@@H](Oc1ccc(-n3cnc4cc(C(O)CC(C)(C)C)sc4c3=O)cc1)C2 (some centres unmarked) [Example 135] | 2.25 µM |
| CN(C)CCOc1ccc(-n2cnc3cc(COCC4CCC4)sc3c2=O)cc1 [Example 93, 6-Cyclobutylmethoxymethyl-3-[4 (2-dimethylaminoethoxy)phenyl]-3H-thieno[3,2-d]pyrimidin-4-one] | 0.93 µM |
| CN1[C@@H]2CC[C@H]1C[C@@H](Oc1ccc(-n3cnc4cc(CCc5ccco5)sc4c3=O)cc1)C2 [Example 171, 6-(2-Furan-2-ylethyl)-3-[4-((1S,3R,5R)-8-methyl-8-azabicyclo[3.2.1]oct-3-yloxy)phenyl]-3H-thieno[3,2-d]pyrimidin-4-one] | 0.21 µM |
